Measurements reported in ChEMBL document CHEMBL4304775, “Identification and characterization of a novel chemotype for human TLR8 inhibitors” (Eur J Med Chem, 2019).
Activity calls are given as the source filed them. No cut-off for these calls is given here.

Columns and labels:
[1] = target: Toll-like receptor 3 (Homo sapiens) (UniProt O15455); assay: […] at TLR3 in human THP1 cells assessed as inhibition of poly(A:U)-induced IL-8 secretion preincubated for 1 hr followed by poly(A:U)-stimulation and measured after 24 hrs by ELISA; format: cell-based
Chain of Toll-like receptor 3 (Homo sapiens) (O15455 whole entry): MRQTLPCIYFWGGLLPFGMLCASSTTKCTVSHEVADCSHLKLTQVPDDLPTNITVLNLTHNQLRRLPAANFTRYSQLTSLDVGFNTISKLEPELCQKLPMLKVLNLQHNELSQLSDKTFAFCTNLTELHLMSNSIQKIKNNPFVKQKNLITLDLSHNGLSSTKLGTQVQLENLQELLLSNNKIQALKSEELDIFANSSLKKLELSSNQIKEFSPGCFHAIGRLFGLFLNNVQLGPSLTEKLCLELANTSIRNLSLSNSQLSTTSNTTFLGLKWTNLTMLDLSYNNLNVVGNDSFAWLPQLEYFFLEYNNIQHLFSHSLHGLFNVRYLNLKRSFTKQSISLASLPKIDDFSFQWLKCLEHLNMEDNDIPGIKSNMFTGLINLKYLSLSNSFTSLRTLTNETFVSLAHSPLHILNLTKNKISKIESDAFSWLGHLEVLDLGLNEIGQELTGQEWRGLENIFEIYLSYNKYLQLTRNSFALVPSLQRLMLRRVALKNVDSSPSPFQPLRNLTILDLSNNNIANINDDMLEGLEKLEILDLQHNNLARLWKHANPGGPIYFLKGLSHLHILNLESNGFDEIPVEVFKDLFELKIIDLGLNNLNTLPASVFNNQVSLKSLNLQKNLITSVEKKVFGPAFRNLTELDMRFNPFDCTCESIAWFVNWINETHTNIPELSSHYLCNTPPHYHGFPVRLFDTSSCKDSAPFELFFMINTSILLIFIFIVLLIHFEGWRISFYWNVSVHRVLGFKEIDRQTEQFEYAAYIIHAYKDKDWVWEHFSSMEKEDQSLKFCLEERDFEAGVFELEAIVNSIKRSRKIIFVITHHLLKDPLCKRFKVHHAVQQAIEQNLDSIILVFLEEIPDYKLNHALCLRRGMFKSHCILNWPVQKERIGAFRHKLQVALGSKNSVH

[2] = target: Toll-like receptor 3 (Homo sapiens) (UniProt O15455); assay: […] at TLR3 in human THP1 cells assessed as inhibition of poly(I:C)-induced IL-8 secretion preincubated for 1 hr followed by poly(I:C)-stimulation and measured after 24 hrs by ELISA; format: cell-based
[3] = target: T1, Toll-like receptor 7 (Homo sapiens) (UniProt Q9NYK1); assay: Antagonist activity at human TLR7 expressed in HEK-Blue cells assessed as inhibition of CL075-induced NF-kappaB activation incubated for 1 hr followed by CL075-stimulation and measured after 24 hrs by quanti-blue SEAP assay; format: cell-based
T1 sequence (whole entry): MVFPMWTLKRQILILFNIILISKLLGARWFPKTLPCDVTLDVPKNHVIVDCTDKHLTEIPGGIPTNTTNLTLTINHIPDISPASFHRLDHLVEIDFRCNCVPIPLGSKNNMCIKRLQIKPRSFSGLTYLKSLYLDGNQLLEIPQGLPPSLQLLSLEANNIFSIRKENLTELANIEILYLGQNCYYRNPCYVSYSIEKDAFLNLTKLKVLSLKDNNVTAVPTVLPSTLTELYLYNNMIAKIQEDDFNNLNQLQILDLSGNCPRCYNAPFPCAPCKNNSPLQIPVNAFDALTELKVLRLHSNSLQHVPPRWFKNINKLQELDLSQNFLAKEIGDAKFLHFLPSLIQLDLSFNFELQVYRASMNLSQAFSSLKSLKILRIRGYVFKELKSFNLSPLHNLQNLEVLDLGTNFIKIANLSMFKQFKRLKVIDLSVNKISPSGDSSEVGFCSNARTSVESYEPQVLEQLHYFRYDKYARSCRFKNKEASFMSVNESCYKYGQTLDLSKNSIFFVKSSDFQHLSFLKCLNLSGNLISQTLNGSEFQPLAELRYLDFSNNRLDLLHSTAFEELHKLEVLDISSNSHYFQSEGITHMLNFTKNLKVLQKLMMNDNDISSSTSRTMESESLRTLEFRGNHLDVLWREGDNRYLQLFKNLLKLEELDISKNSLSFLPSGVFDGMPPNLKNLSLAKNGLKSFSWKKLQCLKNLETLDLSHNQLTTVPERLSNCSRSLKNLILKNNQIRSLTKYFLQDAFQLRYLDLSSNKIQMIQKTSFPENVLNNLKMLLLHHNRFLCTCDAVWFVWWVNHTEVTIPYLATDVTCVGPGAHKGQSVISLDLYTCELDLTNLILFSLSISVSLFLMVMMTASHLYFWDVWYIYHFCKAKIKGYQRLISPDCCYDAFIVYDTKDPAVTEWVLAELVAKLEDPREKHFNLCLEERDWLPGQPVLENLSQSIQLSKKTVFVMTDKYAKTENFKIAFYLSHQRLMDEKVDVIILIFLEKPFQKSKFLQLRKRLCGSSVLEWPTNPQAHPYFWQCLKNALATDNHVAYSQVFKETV

[4] = target: T2, Toll-like receptor 8 (Homo sapiens) (UniProt Q9NR97); assay: Activation of human TLR8 expressed in HEK-Blue cells assessed as increase in NF-kappaB activation at 5 to 25 uM incubated for 24 hrs by quanti-blue SEAP assay; format: cell-based
T2 sequence (whole entry): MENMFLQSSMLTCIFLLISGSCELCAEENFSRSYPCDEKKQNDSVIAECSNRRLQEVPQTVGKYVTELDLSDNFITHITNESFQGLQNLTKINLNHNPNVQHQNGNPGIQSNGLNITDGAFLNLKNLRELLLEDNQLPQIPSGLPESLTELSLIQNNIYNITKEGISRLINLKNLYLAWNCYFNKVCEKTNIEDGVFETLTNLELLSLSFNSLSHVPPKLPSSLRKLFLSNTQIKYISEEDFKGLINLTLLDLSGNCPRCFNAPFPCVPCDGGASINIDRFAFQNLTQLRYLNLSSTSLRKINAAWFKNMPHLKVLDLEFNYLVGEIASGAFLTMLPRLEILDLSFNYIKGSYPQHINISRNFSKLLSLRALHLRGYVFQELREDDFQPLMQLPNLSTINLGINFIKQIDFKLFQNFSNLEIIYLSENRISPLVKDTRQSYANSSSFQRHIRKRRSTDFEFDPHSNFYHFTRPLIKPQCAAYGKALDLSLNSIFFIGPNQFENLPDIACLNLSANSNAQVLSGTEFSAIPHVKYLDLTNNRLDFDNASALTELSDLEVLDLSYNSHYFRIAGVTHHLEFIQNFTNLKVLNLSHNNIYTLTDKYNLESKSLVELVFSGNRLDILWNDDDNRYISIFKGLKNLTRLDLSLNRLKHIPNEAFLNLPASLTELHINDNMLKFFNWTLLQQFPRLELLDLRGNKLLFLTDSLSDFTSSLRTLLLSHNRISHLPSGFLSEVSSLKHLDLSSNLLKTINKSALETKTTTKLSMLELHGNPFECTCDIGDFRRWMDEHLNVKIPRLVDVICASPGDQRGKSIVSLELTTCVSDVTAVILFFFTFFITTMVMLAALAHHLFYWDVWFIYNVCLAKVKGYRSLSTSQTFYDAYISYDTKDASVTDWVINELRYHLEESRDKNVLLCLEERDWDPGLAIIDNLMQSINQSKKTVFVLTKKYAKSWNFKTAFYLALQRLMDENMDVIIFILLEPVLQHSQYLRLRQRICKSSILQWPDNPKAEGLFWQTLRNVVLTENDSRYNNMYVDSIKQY

[5] = target: T2, Toll-like receptor 8 (Homo sapiens); assay: Antagonist activity at human TLR8 expressed in HEK-Blue cells assessed as reduction in CL075-induced NF-kappaB activation at 10 uM incubated for 1 hr followed by CL075-stimulation and measured after 24 hrs by quanti-blue SEAP assay; format: cell-based
[6] = target: Toll-like receptor 2 (Homo sapiens) (UniProt O60603); assay: Antagonist activity at TLR2 in human THP1 cells assessed as inhibition of Pam2CSK4/Pam3CSK4-induced IL-8 secretion preincubated for 1 hr followed by Pam2CSK4/Pam3CSK4 stimulation and measured after 24 hrs by ELISA; format: cell-based
Chain of Toll-like receptor 2 (Homo sapiens) (O60603 whole entry): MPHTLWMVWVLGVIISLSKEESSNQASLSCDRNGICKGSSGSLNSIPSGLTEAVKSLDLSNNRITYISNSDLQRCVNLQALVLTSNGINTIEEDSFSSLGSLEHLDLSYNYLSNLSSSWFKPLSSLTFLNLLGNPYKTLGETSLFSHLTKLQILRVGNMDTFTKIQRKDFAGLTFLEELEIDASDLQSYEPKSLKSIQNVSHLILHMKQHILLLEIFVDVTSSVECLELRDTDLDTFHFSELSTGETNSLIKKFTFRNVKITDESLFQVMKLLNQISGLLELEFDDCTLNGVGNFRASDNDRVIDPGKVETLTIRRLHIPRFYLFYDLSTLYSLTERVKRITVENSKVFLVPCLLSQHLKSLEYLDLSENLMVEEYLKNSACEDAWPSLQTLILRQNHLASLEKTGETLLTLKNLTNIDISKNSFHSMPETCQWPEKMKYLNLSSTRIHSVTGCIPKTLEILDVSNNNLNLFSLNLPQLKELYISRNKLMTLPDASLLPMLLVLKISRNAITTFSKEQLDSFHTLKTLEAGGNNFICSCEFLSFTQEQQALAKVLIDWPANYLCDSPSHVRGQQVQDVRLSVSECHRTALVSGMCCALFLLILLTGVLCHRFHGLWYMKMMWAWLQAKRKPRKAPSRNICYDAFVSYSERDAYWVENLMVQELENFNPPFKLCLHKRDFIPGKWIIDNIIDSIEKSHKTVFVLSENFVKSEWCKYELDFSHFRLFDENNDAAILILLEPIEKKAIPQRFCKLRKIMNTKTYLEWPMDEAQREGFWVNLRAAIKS

[7] = target: T2, Toll-like receptor 8 (Homo sapiens); assay: Antagonist activity at human TLR8 expressed in HEK-Blue cells assessed as reduction in CL075-induced NF-kappaB activation at 25 uM incubated for 1 hr followed by CL075-stimulation and measured after 24 hrs by quanti-blue SEAP assay relative to control; format: cell-based
[8] = tested on: THP-1; assay: Antiinflammatory activity in human THP1 cells assessed as reduction in CL075-induced TNF secretion at 10 to 25 uM preincubated for 1 hr followed by CL075-stimulation and measured after 4 hrs by ELISA relative to control; format: functional
[9] = target: T2, Toll-like receptor 8 (Homo sapiens); assay: Antagonist activity at human TLR8 expressed in HEK-Blue cells assessed as reduction in CL075-induced NF-kappaB activation at 10 to 25 uM incubated for 1 hr followed by CL075-stimulation and measured after 24 hrs by quanti-blue SEAP assay relative to control; format: cell-based

| SMILES | inhibition [1] | inhibition [2] | inhibition [3] | Activity [4] | inhibition [5] | inhibition [6] | inhibition [7] [%] | inhibition (INH) [8] [%] | inhibition [9] [%] |
| --- | --- | --- | --- | --- | --- | --- | --- | --- | --- |
| FC(F)(F)c1cc(-c2ccco2)nc(NCc2cccs2)n1 | inactive | inactive | inactive | inactive | Active | inactive | < 50 | 40 | 50 |
| FC(F)(F)c1cc(-c2ccccc2)nc(NCc2cccs2)n1 | inactive | inactive | inactive | inactive | Active | inactive | < 50 | 40 | 100 |
| CCCCNc1nc(-c2cccs2)cc(C(F)(F)F)n1 | inactive | inactive | inactive | inactive | Active | inactive | < 50 | >60 | 100 |
